Values joined by “and” are separate entries in the source; they are usually repeats but may differ in a detail not shown here. Identical values can stand only once.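 Results reflect a 48-hour exposure of cells in 96-well plates to compound at five concentrations. The concentration for full growth arrest is given as TGI.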
Key:
Test in all cases: inhibition of tumour cell growth, NCI panel, 48 h
T-47D breast = tested on: T-47D breast
K-562 leukemia = tested on: K-562 leukemia
MOLT-4 leukemia = tested on: MOLT-4 leukemia
NCI-H23 lung = tested on: NCI-H23 lung
CCRF-CEM leukemia = tested on: CCRF-CEM leukemia
NCI-H460 lung = tested on: NCI-H460 lung
NCI/ADR-RES ovarian = tested on: NCI/ADR-RES ovarian
786-0 renal = tested on: 786-0 renal
MCF7 breast = tested on: MCF7 breast
DMS 273 small cell lung = tested on: DMS 273 small cell lung
DLD-1 colon = tested on: DLD-1 colon
SNB-78 CNS = tested on: SNB-78 CNS

Row | Compound | TGI (T-47D breast) [µM] | TGI (K-562 leukemia) [µM] | TGI (MOLT-4 leukemia) | TGI (NCI-H23 lung) [µM] | TGI (CCRF-CEM leukemia) [µM] | TGI (NCI-H460 lung) [µM] | TGI (NCI/ADR-RES ovarian) [µM] | TGI (786-0 renal) [µM] | TGI (MCF7 breast) [µM] | TGI (DMS 273 small cell lung) [µM] | TGI (DLD-1 colon) [µM] | TGI (SNB-78 CNS) [µM]
1 | C=CCOCn1cnc2c(N)ncnc21 | > 100 | > 100 | > 100 µM | > 100 | > 100 | > 100 | > 100 | > 100 | > 100 |  |  | 
2 | COC1=C(N=[N+]=[N-])C(=O)c2ncccc2C1=O | 3.85 | 15.2 | 2.86 µM | 16.1 |  | 32.6 | 25.6 | 16.3 | 3.41 | 25.7 | 3.14 | 12.7
3 | COc1cc(OC)c2c(O)c3c(cc2c1)CC(C)(C)CC3=O | > 100 | > 100 | > 100 µM | > 100 | > 100 | > 100 | > 100 | > 100 | > 100 |  |  | 
4 | Cn1c(=O)c2c(nc3n(Cc4ccccc4)c(=O)c(NCCBr)cn23)n(C)c1=O | 52.9 | > 100 | > 100 µM | > 100 | > 100 | > 100 | 60.2 | 37 | > 100 |  |  | 
5 | O=[N+]([O-])/C(C(Cl)=C(Cl)Cl)=C1\NCCO1 | > 100 | > 100 | > 100 µM | > 100 | 66.7 | > 100 | > 100 | > 100 | > 100 |  |  | 
6 | O=C1NC(N/N=C\C(O)C(O)C(O)CO)=N/C1=C/c1ccc(Cl)cc1 (centres undefined) | > 100 | > 100 | 55.6 µM and 61.4 µM | > 100 | > 100 | > 100 | > 100 | > 100 | > 100 |  |  | 
7 | CN(C)c1ccc(/C=C2\N=C(NN)NC2=O)cc1 | > 100 | > 100 | > 100 µM | > 100 | > 100 | > 100 | > 100 | > 100 | > 100 |  |  | 
8 | COc1ccccc1-c1cc(=O)c2ccccc2[nH]1 |  | > 100 | > 100 µM | > 100 | > 100 | > 100 |  | > 100 |  | > 100 | > 100 | > 100
9 | CCCCCC(=O)N[C@@H](c1ccccc1)C(O)C(=O)OC1C[C@@]2(O)C(OC(=O)c3ccccc3)C3[C@](C)(C(=O)[C@H](O)C(=C1C)C2(C)C)C(OC1OCC(O)C(O)C1O)C[C@H]1OC[C@@]31OC(C)=O (some centres undefined) | > 100 | > 100 | > 100 µM | > 100 | > 100 | > 100 | > 100 | > 100 | > 56.7 |  |  | 
10 | O=c1c(SSc2coc3cc(F)ccc3c2=O)coc2cc(F)ccc12 | 46.6 | 64.2 | 69.6 µM | > 100 | 37.9 | 98.3 | 78.8 | 21.6 | 43.6 |  |  | 
11 | Clc1cc2c(c(CSC3=NCN(CC4CC4)CN3)c1)OCOC2 | 62.2 | > 100 | 64 µM | 39.3 | 27.2 | 39.6 | 72.9 | 52.2 | 93.8 |  |  | 
12 | CCOc1ccc(/C=C(\Cl)c2ccc(OC)c(OC)c2)cc1 |  | > 100 | > 100 µM | > 100 | > 100 |  |  | > 100 |  | > 100 | > 100 | > 100
13 | O=C1/C(=C\c2cccc(Oc3ccccc3)c2)S(=O)(=O)C(c2ccccc2)N1c1ccccc1Cl (centres undefined) | > 100 | 64.2 | 48.9 µM | > 100 | 51.2 | > 100 | > 100 | > 100 | > 100 |  |  | 
14 | Cc1ccc(N=Nc2c(O)ccc3cc(S(=O)(=O)O)ccc23)c(C)c1 | > 100 | > 100 | > 100 µM | > 100 | > 100 | > 100 | > 100 | > 100 | > 100 |  |  | 
15 | CCCCCC(=O)c1ccc2[nH]c3c(C)cc([N+](=O)[O-])c(C)c3c2c1 |  | 92.5 | > 100 µM | > 100 | > 100 | > 100 |  | > 100 |  | > 100 |  | > 100
16 | C=CCOc1ccccc1N=N/C(C#N)=N\Nc1ccccc1OCC=C | > 100 | > 100 | > 100 µM | > 100 | > 100 | > 100 | > 100 | > 100 | > 100 |  |  | 
17 | Cc1c2c(cc3c1[nH]c1ccccc13)C=NCC2 |  | 20.8 | 24.8 µM | 82.4 | 30.5 | 27.7 | 63.3 |  | 8.7 | 45.8 | 33.1 | 63.8
